Results taken from patent US5756505A, “N-acylpiperazine derivative, antibacterial drug and anti-ulcer drug” (Shiseido Co., Ltd., priority 1995, dated 1998).

Experiments:
[1] = tested on: gastric corpus mucosa cells; test: MTT: Cell Damaging and Protecting Effect Test; format: cell-based, rabbit (male Japanese White); settings: final concentration 10^-4 M, 4 hours; smaller value is better; 100 µM
Description: MTT: Cell Damaging and Protecting Effect Test
It is confirmed that there is no toxicity in cell level. Those having a toxicity in cell level are inappropriate as an anti-ulcer drug.
A male Japanese White rabbit (2.5 to 3 kg) was anesthetized to death by Nembutal™ and, immediately thereafter, its stomach was removed. The greater curvature of the stomach was incised so as to remove the stomach contents therefrom. After the mucosal surface was washed with HBSS (Hanks' Balanced Salt Solution), the stomach in ice-cooled HBSS was transferred to a laboratory. Then, after the pyloric antrum was removed, the gastric corpus mucosa was separated by a spatula and then minced into 2 to 3 mm^3 pieces in BME (Basal Medium Eagle). Thereafter, these pieces were shaken at 120 to 130 cycles/minute for 15 minutes at 37° C. in BME 60ml containig 280 U/ml of dispase and 30 to 50 U/ml of collagenase. Here, the concentration of collagenase was appropriately changed for each lot in view of the state of cells. The pieces were washed twice with EBSS (Earle's Balanced Salt Solution) containing 1 mM of EDTA and then shaken in MEM (Minimum Essential Medium) containing 1 mM of EDTA at 37° C. for 5 minutes. Subsequently, they were shaken in the dispase and collagenase having the same concentrations as those mentioned above for 15 minutes so as to remove the supernatant and then further shaken at 37° C. for 50 to 60 minutes at 120 to 130 cycles/minute. Then, after being washed twice with HBSS, Ham F12 containing 2% of Ultrocer G™ was used to attain the concentration of 1×10^6 cells/ml. Thus formed suspension was dispensed in each well of a 96-well plate by 200 μl. The plate was incubated in the atmosphere composed of 5% CO2 and 95% air at 37° C. for three days so as to attain a confluent state and then subjected to MTT assay.
The sample compound was dissolved in DMSO so as to attain a concentration of 10^-2 M and then diluted with HBSS containing 2% of Ultrocer G™ so as to attain a final concentration of 10^-4 M. To each group, which 8 wells were used for, 10 μl of MTT reagent were added immediately after 100 μl of the medium in each well were exchanged for same volume of the resulting solution of the sample compound. After being incubated in an atmosphere composed of 5% CO2 and 95% air at 37° C. for 4 hours, thus formed solution was centrifuged and then its supernatant was discarded. Subsequently, 100 μl of 100% ethanol were added to the residue so as to dissolve MTT formazan. Then, the absorbance (OD: 570 to 630) was measured by a microplate reader. This method utilizes a phenomenon in which MTT is changed to MTT formazan only by mitochondria of living cells so as to change color.
The cell damaging or cell protecting effect of the sample compound at the final concentration of 10^-4 M was expressed as cell damaging rate (%) as follows:
cell damaging rate (%)=[1-(absorbance in sample group/absorbance in control group)]×100
Accordingly, the smaller value is better in the cell damaging rate.

acid secretion = test: VOL, TAO: Acid Secretion Inhibition Test In Vivo; set-up: species or system rat (male Crj:Donryu); settings: rat; for TAO: total acid output inhibitory rate / VOL: gastric juice volume inhibitory rate: 100 mg/kg oral, histamine-stimulated, pylorus ligated; for gastric acid secretion inhibition effect (in words): in vivo
Procedure: VOL, TAO: Acid Secretion Inhibition Test In Vivo
Inhibitory effect on acid secretion in vivo is confirmed.
Male Crj:Donryu rats (7-week-old) were fasted overnight but allowed free access to water. In each group, 8 to 10 of these rats were used under urethane anesthesia (1.25 g/kg). The sample compound dissolved or suspended in an aqueous solution of 0.5% sodium carboxymethylcellulose or 0.05% Tween 80 was orally administered (100 mg/10 ml/kg). 30 minutes later, the abdomen of each was incised and the pylorus was ligated. 30 minutes after the ligation, 30 mg/kg of histamine dissolved in physiological saline were subcutaneously administered and, 3 hours thereafter, the rat was sacrificed with carbon dioxide. Immediately thereafter, each stomach was removed and the gastric contents were collected and each volume was determined. The total acid output was determined by titration of the gastric juice with 0.1N NaOH.
With respect to the gastric juice volume (VOL) and the total acid output (TAO), the effects obtained when 100 mg/kg of the sample compound had been administered were expressed as their respective inhibitory rates (%) as follows:
each inhibitory rate (%)=[1-(value in sample group/value in control group)]×100

mice = test: AT: Single Dose Toxicity Pretest; format: in vivo, mouse (male Slc:ICR)
Procedure: AT: Single Dose Toxicity Pretest
Male Slc:ICR mice (5-week-old) were used. Each group has 3 to 5 mice and each mouse was fasted, but allowed free access to water, for 4 to 5 hours from 9 a.m. in the test day. Then, 2,000 mg/10 ml/kg of the sample compound dissolved or suspended in an aqueous solution of 0.5% sodium carboxymethylcellulose were orally administered thereto. To a control, only the vehicle was administered. […] The body weight was measured before and after the fasting as well as at the same time everyday. The dead animals were immediately subjected to autopsy and their organs were observed macroscopically. Also, the living animals were sacrificed with ether or carbon dioxide one week after the administration and then their organs were observed macroscopically.
The toxicity at the single dose of 2,000 mg/kg of the sample compound was expressed as being classified into 5 levels.
5: Mortality rate is 0%; no toxicity is found at all both in behavior and organs.
4: Mortality rate is 0%; while no toxicity is found in organs, slight toxicity is observed in behavior and body weight increase.
3: While there is a dead animal (though not all the animals are dead), no toxicity is found in organs.
2: Regardless of whether there is a dead animal or not, toxicity is found in organs.
1: All the animals are dead.

[2] = Tests for Safety (PD, AT, MTT), overall statement
Description: Based on the foregoing effect tests and safety tests, the anti-ulcer effect, antibacterial activity against HP, and safety of the example compounds of the present invention were studied.

MTT: cell damaging rate [1] [%] | SMILES | TAO: total acid output inhibitory rate (acid secretion) [%] | VOL: gastric juice volume inhibitory rate (acid secretion) [%] | also measured
-6 | CC(C)CN1CCN(C(=O)c2ccc(OCc3ccc(F)cc3)cc2)CC1.Cl [Example 2, 1-[4-(4-fluorobenzyloxy)benzoyl]-4-isobutylpiperazine hydrochloride] |  |  | 
-84 | CC(C)CN1CCN(C(=O)c2ccc(OCc3ccc(F)cc3)cc2)CC1 [Example 5, 1-[4-(4-fluorobenzyloxy)benzoyl]-4-isobutylpiperazine] |  |  | 
 | CC(C)CN1CCN(C(=O)c2ccc(OCc3ccc(F)cc3)c([N+](=O)[O-])c2)CC1.Cl [Example 8, 1-[4-(4-fluorobenzyloxy)-3-nitrobenzoyl]-4-isobutylpiperazine hydrochloride] | 16 | 8 | 
 | CC(C)Cc1cc(C(=O)N2CCN(CC(C)C)CC2)ccc1OCc1ccc([N+](=O)[O-])cc1.Cl [Example 13, 1-isobutyl-4-[3-isobutyl-4-(4-nitrobenzyloxy)benzoyl]piperazine hydrochloride] | 18 | 3 | 
 | CC(C)Cc1cc(CC(=O)N2CCN(CC(C)C)CC2)ccc1OCc1ccccc1 [Example 15, 1-(4-benzyloxy-3-isobutylphenylacetyl)-4-isobutylpiperazine] |  |  | AT: toxicity at single dose, level (mice; mouse, 2,000 mg/kg oral, one week): 2
 | CC(C)Cc1cc(C(=O)N2CCN(CC(C)C)CC2)ccc1OCc1ccccc1 [Example 16, 1-(4-benzyloxy-3-isobutylbenzoyl)-4-isobutylpiperazine] |  |  | AT: toxicity at single dose, level (mice; mouse, in vivo): 2
 | CC(C)Cc1cc(C(=O)N2CCN(CC(C)C)CC2)ccc1OCc1ccc(Cl)cc1 [Example 17, 1-[4-(4-chlorobenzyloxy)-3-isobutylbenzoyl]-4-isobutylpiperazine] |  |  | AT: toxicity at single dose, level (mice; mouse, in vivo): 2
-33 | CC(C)Cc1cc(C(=O)N2CCN(CC(C)C)CC2)ccc1OCc1ccccc1F [Example 18, 1-[4-(2-fluorobenzyloxy)-3-isobutylbenzoyl]-4-isobutylpiperazine] |  |  | 
-55 | CC(C)Cc1cc(C(=O)N2CCN(CC(C)C)CC2)ccc1OCc1ccccc1F.Cl [Example 19, 1-[4-(2-fluorobenzyloxy)-3-isobutylbenzoyl]-4-isobutylpiperazine hydrochloride] | 42 | 6 | 
 | CC(C)Cc1cc(CN2CCN(CC(C)C)CC2)ccc1OCc1ccc(F)cc1.Cl.Cl [Example 20, 1-[4-(4-fluorobenzyloxy)-3-isobutylbenzyl]-4-isobutylpiperazine dihydrochloride] | 43 | 12 | 
-65 | CC(C)Cc1cc(C(=O)N2CCN(CC(C)C)CC2)ccc1OCc1ccc(F)cc1 [Example 21, 1-[4-(4-fluorobenzyloxy)-3-isobutylbenzoyl]-4-isobutylpiperazine] | 35 | 9 | gastric acid secretion inhibition effect (in words) (acid secretion): improved; safety (in words) [2]: great improvement in safety
-4 | CC(C)Cc1cc(C(=O)N2CCN(CC(C)C)CC2)ccc1OCc1ccc(F)cc1.Cl [Example 22, 1-[4-(4-fluorobenzyloxy)-3-isobutylbenzoyl]-4-isobutylpiperazine hydrochloride] | 22 | 10 | gastric acid secretion inhibition effect (in words) (acid secretion): improved; safety (in words) [2]: great improvement in safety
 | CC(C)Cc1cc(C(=O)N2CCN(CC(C)C)CC2)ccc1OCc1ccc(F)c(F)c1.Cl [Example 23, 1-[4-(3,4-difluorobenzyloxy)-3-isobutylbenzoyl]-4-isobutylpiperazine hydrochloride] | 9 | -9 | 
-126 | CC(C)Cc1cc(C(=O)N2CCN(CC(C)C)CC2)ccc1OCc1ccc(F)cc1F.Cl [Example 24, 1-[4-(2,4-difluorobenzyloxy)-3-isobutylbenzoyl]-4-isobutylpiperazine hydrochloride] | 33 | 7 | 
-28 | CC(C)Cc1cc(C(=O)N2CCN(CC(C)C)CC2)ccc1OCc1ccc(F)cc1.O=C(O)C(=O)O [Example 25, 1-[4-(4-fluorobenzyloxy)-3-isobutylbenzoyl]-4-isobutylpiperazine oxalate] | 47 | 19 | 
29 | CC(C)Cc1cc(C(=O)N2CCN(CC(C)C)CC2)ccc1OCc1ccc(F)c(F)c1 [Example 26, 1-[4-(3,4-difluorobenzyloxy)-3-isobutylbenzoyl]-4-isobutylpiperazine] |  |  | 
-119 | CC(C)Cc1cc(C(=O)N2CCN(CC(C)C)CC2)ccc1OCc1ccc(F)cc1F [Example 27, 1-[4-(2,4-difluorobenzyloxy)-3-isobutylbenzoyl]-4-isobutylpiperazine] |  |  | 
